Results from paper PMC3878761, “Interactions of peptide triazole thiols with Env gp120 induce irreversible breakdown and inactivation of HIV-1 virions” (Retrovirology, 2013).
“And” between values parts separate entries of the source, which are not always exact repeats. Equal values may be shown once. “Also recorded” adds a separate entry of the source. Read-outs that look alike come from different tables or passages of the source. Starred links: 1 amine or outer side, 2 acyl side, 3 side chain; linkers in the order of their positions; H or OH if unused. Non-standard residues stand in square brackets, D forms with d. Residues, ends and D or L forms follow the SMILES beside them. X1 = O=C([C@@H]1C[C@H](n2cc([C]34[CH]5[CH]6[CH]7[CH]3[Fe]6754389%10[CH]4[CH]3[CH]8[CH]9[CH]4%10)nn2)CN1[*:1])[*:2]; βAla = NCCC(=O)O

Assays:
[1] = test system: gp41 of HIV-1 BaL pseudovirus (4E10 epitope); assay: exposure of gp41 MPER epitope, 4E10 ELISA; conditions: fixed BaL pseudovirions, 30 min at 37°C (dose) or 1 μM (time), n = 3
Protocol: (§1) We also measured the presence of gp41 epitopes for human mAb’s 2 F5 and 4E10 using an altered ELISA detection method to minimize virus particle disruption. […] Virus fractions were collected and fixed with equal volume of 0.1% paraformaldehyde for 30 minutes at 4°C. The treated virus fractions were spun at 16,000 X g for 2 hours at 4°C in an Eppendorf table top centrifuge. Following PBS wash, fixed virions were coated on an ELISA plate at 50 μl per well and incubated overnight at 4°C. The plate was blocked with 3% BSA, and ELISA was used to detect gp41 epitopes with human gp41 antibodies 2 F5 and 4E10 followed by addition of anti-human IgG HRP secondary antibody.

HIV-1 BaL pseudovirus [2] = test system: HIV-1 BaL pseudovirus
HIV-1 BaL pseudovirus [3] = assay: p24 release from HIV-1 BaL pseudovirus (ELISA); conditions: ELISA
HIV-1 YU2 gp120 = molecular target: T1, HIV-1 YU2 gp120 (Human immunodeficiency virus type 1 group M subtype B, UniProt P35961); assay: SPR direct binding to immobilized YU2 gp120; conditions: immobilized YU2 gp120, PBS + 0.005% Tween 20, pH 7.2, 25°C
T1 construct: made in house; host or cells: 293F cells
Protocol: (Additional file 1: Figure S2). […] Direct binding of the peptide triazole to sensor chip immobilized HIV-1 YU2 gp120 was measured as previously described using Surface Plasmon Resonance (SPR) with a Biacore 3000 optical biosensor (GE Healthcare). […] The cell viability was measured using the tetrazolium salt premix reagent, WST-1 from Takara Bio Inc. following the manufacturer’s protocol. The formazan product was measured using the microplate reader at absorbance wavelength 460 nm (Molecular Devices).

HIV-1 BaL pseudovirus [4] = assay: gp120 shedding from HIV-1 BaL pseudovirus (western blot)
[5] = test system: fully infectious HIV-1 BaL virions; conditions: upto 200 µM, n = 3
Protocol: (§2) The replication competent virions were assayed for peptide triazole-induced inhibition of infection, gp120 shedding and p24 release in a BSL-2 facility. Gradient purification of the viruses and p24 release assays were performed as with pseudoviruses (described in Materials and Methods above). Cell infection by virus and its inhibition by peptide triazoles were tested using a modified version of a previously reported p24 ELISA assay [60]. The p24 release assays as well as detection of gp120 shedding were conducted as with the BaL pseudovirions (described in Materials and Methods above).
(§3) Virions were purified using 6-20% iodixanol gradient and p24 content measured using ELISA. […] HOS CD4^+ve CCR5^+ve cells seeded, at 8,000 cells per well in a 96 well plate, were incubated for 24 hours followed by addition of pre-incubated inhibitor-virus mixture. […] Further, the peptide triazole and cell-free virus were pre-incubated for 30 min at 37°C followed by spinning for 2 hours at 13,600 rpm in a table top centrifuge (Eppendorf) at 4°C. Supernatant was separated and p24 content determined using the p24 capture ELISA (explained in the main Materials and Methods section) and gp120 using western blot analysis (explained in the Supplementary Text above).

[6] = test system: gp41 of HIV-1 BaL pseudovirus (2 F5 epitope); assay: exposure of gp41 MPER epitope, 2 F5 ELISA; conditions: fixed BaL pseudovirions, 30 min at 37°C (dose) or 1 μM (time), n = 3
Protocol: as §1

[7] = test system: gp41 of HIV-1 BaL pseudovirus (98–6 epitope); assay: gp41 content of treated virions, mAb 98-6 western blot; conditions: western blot mAb 98–6, BaL pseudovirus
[8] = test system: fully infectious HIV-1 BaL virions; assay: gp120 shedding from fully infectious HIV-1 BaL; conditions: read-out: gp120 shedding IC50 (*, fully infectious), 30 min at 37°C, western blot, ± SD
Protocol: as §2, §3

[9] = molecular target: T2, sCD4 binding to plate-immobilized YU2 gp120 (Human immunodeficiency virus type 1 group M subtype B, UniProt P35961); assay: competition ELISA, sCD4 binding to gp120; parameters: species or system HIV-1; conditions: ± SD, n > 3
T2 construct: made in house; host or cells: 293F cells

[10] = molecular target: T3, 17b binding to plate-immobilized YU2 gp120 (Human immunodeficiency virus type 1 group M subtype B, UniProt P35961); assay: competition ELISA, mAb 17b binding to gp120; parameters: species or system HIV-1; conditions: m17b binding to plate-immobilized gp120, ± SD, n > 3
T3 construct: made in house; host or cells: 293F cells

CD4^-ve CCR5^+ve cells = conditions: cited from earlier work
Protocol: The same incubation conditions were used as for inhibition of HIV-1 entry into HOS […] cells.

[11] = molecular target: HIV-1 BaL Env gp120 on virions (HIV-1 BaL)
[12] = test system: R5-tropic and X4-tropic HIV-1; parameters: method as in 2 sources, one per row (each row's own in cited_ref): ref 7-9, 12 = [7]; PMID 20518583; doi:10.2165/11203940-000000000-00000; Perry CM Maraviroc: a review of its use in the management of CCR5-tropic HIV-1 infection Drugs 2010 10 9 1189 1213 10.2165/11203940-000000000-00000 20518583 || [8]; PMID 23541872; doi:10.1016/j.antiviral.2013.03.017; Haqqani AA Tilton JC Entry inhibitors and their use in the treatment of HIV-1 infection Antiviral Res 2013 10 2 158 170 10.1016/j.antiviral.2013.03.017 23541872 || [9]; PMID 23290628; doi:10.1016/j.coviro.2012.12.002; Henrich TJ Kuritzkes DR HIV-1 entry inhibitors: recent development and clinical use Curr Opin Virol 2013 10 1 51 57 10.1016/j.coviro.2012.12.002 23290628 PMC4213740 || [12]; PMID 17933722; Emmelkamp JM Rockstroh JK CCR5 antagonists: comparison of efficacy, side effects, pharmacokinetics and interactions–review of the literature Eur J Med Res 2007 10 9 409 417 17933722 ||| ref 34 = [34]; PMID 23470147; doi:10.1021/bi400166b; Emileh A Tuzer F Yeh H Umashankara M Moreira DR Lalonde JM Bewley CA Abrams CF Chaiken IM A model of peptide triazole entry inhibitor binding to HIV-1 gp120 and the mechanism of bridging sheet disrupt; conditions: cited from earlier work
HIV-1 BaL pseudovirus [13] = conditions: KR13 1 μM, T20 dilutions from 1 μM, 30 min at 37°C, p24 ELISA, ± SD, n = 3
Protocol: (§4) Treated virion samples were fractionated on a 6-20% iodixanol gradient (above). Gradient fractions were quantified for p24 using ELISA, and relative p24 release was quantified and plotted using the Origin Pro.8 (Origin Lab). Collected gradient fractions also were analyzed for gp120 shedding using western blot analysis, with detection using primary antibody D7324 and secondary anti-sheep HRP. The bands of the blot were analyzed using Image J software. The IC50 values were calculated using Origin Pro.8 (Origin Lab).

HIV-1 BaL pseudovirus [14] = assay: T20 effect on KR13-induced gp120 shedding, BaL; conditions: KR13 1 μM, T20 up to 1 μM, western blot, n = 3
Protocol: as §4

[15] = parenteral; cited from earlier work
Source text: There is an urgent need for new antiretroviral agents for the prevention and treatment of HIV-1. Most of the currently approved HIV drugs target viral enzymes, in particular reverse transcriptase, protease and integrase. In contrast, the number of anti-HIV drugs targeting the entry process is more limited. The proteins involved in HIV-1 entry include gp120 and gp41 organized as a trimer on the viral envelope spike, and both CD4 and a chemokine receptor, either CCR5 or CXCR4, on the cell surface. The fusion inhibitor enfuvirtide (T20) and the CCR5 inhibitor maraviroc are t ...

## CC[C@H](C)[C@H](NC(=O)[C@@H](N)CCCNC(=N)N)C(=O)N[C@@H](CC(N)=O)C(=O)N[C@@H](CC(N)=O)C(=O)N[C@H](C(=O)N1C[C@@H](n2cc([C]34[CH]5[CH]6[CH]7[CH]3[Fe]6754389%10[CH]4[CH]3[CH]8[CH]9[CH]4%10)nn2)C[C@H]1C(=O)N[C@@H](Cc1c[nH]c2ccccc12)C(=O)N[C@@H](CO)C(=O)N[C@@H](CCC(=O)O)C(=O)N[C@@H](C)C(=O)N[C@@H](CCSC)C(=O)N[C@@H](CCSC)C(N)=O)[C@@H](C)CC (stereo partly shown) [HNG156]
[1]
  reactivity to 4E10: MPER epitopes were poorly exposed
HIV-1 BaL pseudovirus [2]; KR13 1 μM or HNG156 100 μM, 1 min to 24 hours, 37°C
  kinetics of infectivity inhibition versus gp120 shedding: infectivity inhibition and gp120 shedding had similar kinetics
HIV-1 BaL pseudovirus [3]
  p24 release, in words: neither of these peptides caused p24 release
HIV-1 YU2 gp120
  SPR direct binding to gp120, in words: bound to gp120
HIV-1 BaL pseudovirus [4]
  gp120 shedding, in words: caused gp120 shedding; also recorded: induced only gp120 shedding
[5]
  p24 release, fully infectious, in words: No p24 release was observed
[6]
  reactivity to 2 F5: MPER epitopes were poorly exposed
[7]
  gp41 retention / 98–6 detection: gp41 remained associated with virions
[8]
  IC50: 1800 nM

## CC[C@H](C)[C@H](NC(=O)[C@@H](N)CCCNC(=N)N)C(=O)N[C@@H](CC(N)=O)C(=O)N[C@@H](CC(N)=O)C(=O)N[C@H](C(=O)N1C[C@@H](n2cc([C]34[CH]5[CH]6[CH]7[CH]3[Fe]6754389%10[CH]4[CH]3[CH]8[CH]9[CH]4%10)nn2)C[C@H]1C(=O)N[C@@H](Cc1c[nH]c2ccccc12)C(=O)N[C@@H](CO)C(=O)N[C@@H](CCC(=O)O)C(=O)N[C@@H](C)C(=O)N[C@@H](CCSC)C(=O)N[C@@H](CCSC)C(=O)NCCC(=O)N[C@@H](CCC(N)=O)C(=O)NCCC(=O)N[C@@H](CSCNC(C)=O)C(N)=O)[C@@H](C)CC (stereo partly shown) [KR13b]
HIV-1 BaL pseudovirus [3]
  p24 release, in words: neither of these peptides caused p24 release
HIV-1 YU2 gp120
  SPR direct binding to gp120, in words: bound to gp120
HIV-1 BaL pseudovirus [4]
  gp120 shedding, in words: caused gp120 shedding; also recorded: induced only gp120 shedding

## CC[C@H](C)[C@H](NC(=O)[C@H](CC(N)=O)NC(=O)[C@H](CC(N)=O)NC(=O)[C@@H](NC(=O)[C@@H](N)CCCNC(=N)N)[C@@H](C)CC)C(=O)N[C@@H](Cc1c[nH]c2ccccc12)C(=O)N1C[C@@H](n2cc([C]34[CH]5[CH]6[CH]7[CH]3[Fe]6754389%10[CH]4[CH]3[CH]8[CH]9[CH]4%10)nn2)C[C@H]1C(=O)N[C@@H](CO)C(=O)N[C@@H](CCC(=O)O)C(=O)N[C@@H](C)C(=O)N[C@@H](CCSC)C(=O)N[C@@H](CCSC)C(=O)NCCC(=O)N[C@@H](CCC(N)=O)C(=O)NCCC(=O)N[C@@H](CS)C(N)=O (stereo partly shown) [KR13s] (H-RINNIW[X1]SEAMM[βAla]Q[βAla]C-NH2; N-terminus assumed)
[9]
  IC50, sCD4 competition: undetected
HIV-1 BaL pseudovirus [2]; single round infection assay
  inhibition of infection, in words: inactive
HIV-1 YU2 gp120
  SPR direct binding to gp120, in words: low and inconsistent dose dependent signals
HIV-1 BaL pseudovirus [4]
  gp120 shedding, in words: not the KR13s control, caused gp120 shedding
[10]
  IC50, 17b competition: undetected

## CC1(C)CC(NC(=O)C(=O)Nc2ccc(Cl)cc2)CC(C)(C)N1 [NBD-556]
CD4^-ve CCR5^+ve cells
  activation of infection, CD4^-ve CCR5^+ve cells (NBD-556): can activate infection in CD4^-ve CCR5^+ve cells

## KR13b (KR13 with the thiol blocked with an acetamidomethyl (ACM) group) (peptide)
[11]
  gp120 shedding from HIV-1 BaL pseudovirus (western blot), IC50: 120 nM
  inhibition of cell infection (viral inactivation), HIV-1 BaL pseudovirus, EC50: 52 nM

## Maraviroc [reference compound]
[12]
  antiviral tropism: blocks R5-tropic but not X4-tropic HIV-1

## enfuvirtide
HIV-1 BaL pseudovirus [2]; read-out: IC50, infection inhibition, BaL (Figure S9), Figure S9, ± SD, n = 3
  IC50: 34.5 ± 1.2 nM
HIV-1 BaL pseudovirus [13]
  IC50: 15 nM and 15.9 nM
HIV-1 BaL pseudovirus [14]
  effect of T20 on KR13-induced gp120 shedding: did not affect gp120 shedding caused by KR13; also recorded: No significant effect on the gp120 release
[15]
  adverse reactions at sites of injection: adverse reactions at sites of injection are common
